Data on ten compounds can be found in US20150374784A1, “COMPOSITIONS AND METHODS FOR REDUCING GERM CELL DEATH” (Los Angeles Biomedical Research Institute at Harbor-UCLA …, priority 2014, published 2015).

In one data set the test system is B16 melanoma cells. The data set is classed as cell-based. The conditions noted are these: B16 cells in culture. The source says:
Furthermore, the autophagy induction of humanin may be related to its apparent effects of enhancing longevity observed in other systems.

A further data set concerns cells. The conditions noted are these: Table 1, description of analogs; cited from earlier work.
For data set [1], the system named is male germ cells. The class given is in vivo, mouse. The conditions noted are these: for effect of adding the analog on the preventive effect of HN against CP-induced germ cell apoptosis: each peptide 40 mg/kg BW; for spontaneous germ cell apoptosis, peptide alone: single IP, 24 hours, no CP; for effect on CP-induced germ cell apoptosis, early+late stages / inhibition of (protection against) CP-induced germ cell apoptosis, early+late stages: stages I-IV and XI-XII; for effect on CP-induced germ cell apoptosis, early+late stages / effect on CP-induced germ cell apoptosis, middle stages: 40 mg/kg BW; for inhibition of (protection against) CP-induced germ cell apoptosis, early+late stages: HN, HN-C8P 40 mg/kg BW. As for the experimental part: (§1) For the HN analog experiments, male mice were divided into seven groups (n=4-5 per group) and received one of the following treatments and sacrificed after 24 hours: 1) vehicle (control); 2) a single intra-peritoneal (IP) injection of HN peptide [HN, 40 mg/Kg body weight (BW)]; 3) a single IP injection of CP (CP, 200 mg/Kg BW); 4) IP injection of CP and HN (CP+HN); 5) a single IP injection of each HN analog (HNG 5 mg/Kg BW, HNG-F6A 5 mg/Kg BW, HN-S7A 40 mg/Kg BW, HN-C8P 40 mg/Kg BW, or HN-L12A 40 mg/Kg BW); 6) IP injection of CP and each HN analog (CP+HNG, HNG-F6A, HN-S7A, HN-C8P, or HN-L12A); and 7) IP injection of CP+HN+HN analog (HN-S7A, HN-C8P, or HN-L12A; to assess whether the analogs has enhancing or inhibitory effect on HN).
(§2) To facilitate testicular fixation by using a whole-body perfusion technique, all animals were injected with heparin (130 IU/100 g BW, IP) 15 min before a lethal injection of sodium pentobarbital (200 mg/kg BW, IP) (Lue Y H, et al., 1999). One testis was removed and weighed after perfusion with saline. Portions of testicular parenchyma were snap frozen in liquid nitrogen, and stored at −80 C for Western blotting. The other testis was fixed by vascular perfusion with Bouin's solution, and processed with routine paraffin embedding for in situ detection of apoptosis.
Detection of apoptotic cells was performed in Bouin's′-fixed, paraffin-embedded testicular sections by the terminal deoxynucleotidyl transferase (TdT)-mediated deoxy-UTP nick end labeling (TUNEL) technique (Sinha Hikim A P, et al., 1997) using an ApopTag-peroxidase kit (Chemicon International, Inc., Temecula, Calif.). Enumeration of the Sertoli cell nuclei with distinct nucleoli and apoptotic germ cell population was quantified at stages I-IV (early stages), stages VII-VIII (middle stages) and stages XI-XII (late stages) of the seminiferous epithelial cycle using an Olympus BH-2 microscope (New Hyde Park, N.Y.). Stages were identified according to the criteria proposed by Russell et al for paraffin sections (Russell L, 1977). The rate of germ cell apoptosis (apoptotic index, AI) was expressed as the number of apoptotic germ cells per Sertoli cells (Sinha Hikim A P, et al., 1997).

A further data set has as its system Leydig cells. The experiment in a line: Leydig cell depletion and testosterone levels in rats. The data set is classed as in vivo, rat.
The subject of data set [2] is male germ cells. The conditions noted are these: EDS 80 mg/kg IP 3 days before; CP 70 mg/kg BW.
The subject of data set [3] is germ cells in seminiferous tubules. The experiment in a line: Germ cell apoptosis in mouse seminiferous tubule cultures ex vivo (TUNEL). The class given is cell-based. The settings on record: 12 hours; for germ cell apoptosis (number of apoptotic germ cells) compared to control: DOX 10 μM (high dose), hydrochloride. As for the experimental part: A total of 15 young adult (12-13 week-old) mice were used for these ex vivo studies. The animals were sacrificed with a 5% pentobarbital (200 mg/Kg) IP injection. Testes were dissected and after removing the tunica albuginea, seminiferous tubules isolated from testes were cut into small segments under a dissecting microscope and light and dark segments were separated by dissection. Ten to twelve segments were placed (2 mm in length) in each well on a six well plate with 2 ml serum free Ham F-10 culture medium (GIBCO, Life Technologies, Thermo Fisher Scientific Corp., Carlsbad, Calif.) with the following treatments: control (Con, n=10), heat (43° C., 15 minutes, used as a positive control, n=10); HN 10 μg/mL (n=9); DOX 10 mcM (Dox10, n=10); and DOX 10 mcM+Humanin 10 μg/mL (Dox10+HN, n=10). For these experiments, n represents the total number of times the treatment was repeated using different animals. After 12 hours of incubation at 34° C. the seminiferous tubules from each treatment group were used to make “squashed” seminiferous tubule samples on a slide for TUNEL (TdT-mediated dUTP nick-end labeling) assay to detect germ cell apoptosis (Erkkila, et al., 1997; Toppari & Parvinen, 1985). To quantify the rate of germ cell apoptosis under a light microscope at 400× magnification, a square grid fitted within the eyepiece provided a reference area of 62,500 μm^2. The TUNEL positive apoptotic germ cells within the frame of grid were counted in 4 segments of seminiferous tubules in each group. The incidence of germ cell apoptosis was expressed as the number of apoptotic germ cells per mm^2.
A total of 15 mice were used for ex vivo studies. The animals were sacrificed and seminiferous tubules isolated from testes were cut into small segments under a dissecting microscope to identify light (early stages I-IV and late stages XI-XII) of the seminiferous epithelium) and dark (middle stages VII-VIII) segments. Ten to twelve light segments (2 mm in length) were placed per well on a six well plate with 2 ml serum free medium of F-10 Ham nutrient mixture (Gibco, Life Technologies, Grand Island, N.Y.) following these treatments: control (Con, n=15 where n is the number of times the treatment was repeated with segments obtained from different donor animals), heat (43° C., 15 min.; used as a positive control, n=10), HN 10 μg/mL (HN, n=9), doxorubicin 1 μM (Dox1, n=7), doxorubicin 1 μM+HN 10 μg/mL (Dox1+HN, n=7), doxorubicin 10 μM (Dox10, n=10), and doxorubicin 10 μM+HN 10 μg/mL (Dox10+HN, n=10). After 12 hours of incubation at 34° C. with 5% CO2, the seminiferous tubules from the seven treatment groups were used to make “squashed” seminiferous tubule preparations on a slide for TUNEL assay to detect germ cell apoptosis (Erkkila K, et al., 1997). To quantify the rate of germ cell apoptosis, the squashed segments of seminiferous tubules were examined with an American Optical Microscope (Scientific Instruments, Buffalo, N.Y.) with a 40×objective and a 10×eyepiece lens. A square grid fitted within the eyepiece provided a reference area of 62,500 μm^2. The TUNEL positive apoptotic germ cells within the frame of grid were counted in 4 segments of seminiferous tubules in each group. The incidence of germ cell apoptosis was expressed as the number of apoptotic germ cells per mm^2.

A further data set concerns STAT3. The data set is described as follows: STAT3 phosphorylation in testis by western blot. The class given is in vivo, mouse. The settings on record: testis homogenates; for STAT3 phosphorylation (phosphorylated STAT3/STAT3) compared with control: treatment alone; for CP suppressed STAT3 (Ser727) phosphorylation: with CP 200 mg/Kg. Here is the method: as §1, §2
Western blotting was performed as described previously (Jia Y, et al., 2009). In brief, proteins were denatured and separated by sodium dodecyl sulfate-polyacrylamide gel electrophoresis (SDS-PAGE) system (Invitrogen, Carlsbad, Calif.). After transferring, the Immuno-blot PVDF Membrane (Bio-Rad, Hercules, Calif.) was blocked for 1 h and then probed using anti-STAT3 or anti-pSer727 STAT3 (Cell signaling Technology, Inc., Beverly, Mass.) overnight at 4 C with constant shaking. After washing, membrane was then incubated with an anti-mouse (for STAT3 antibody, Santa Cruz Biotechnology, Santa Cruz, Calif.) or anti-rabbit (for pSer727 STAT3 antibody, Amersham Biosciences, Piscataway, N.J.) IgG-HRP secondary antibody. All antibodies were diluted in blocking buffer. For immunodetection, membrane was incubated with enhanced chemiluminescence solutions per the manufacturer's specifications (Amersham Biosciences, Piscataway, N.J.), and exposed to Hyperfilm ECL (Denville Scientific Inc., Metuchen, N.J.).
In general terms: Immunoblotting shows a protein as a band on a membrane.

Data set [4] has as its system IGFBP-3, membrane receptor, BAX, HN. The settings on record: Table 1, description of analogs; cited from earlier work.
The mark [5] stands for this setting: rats, EDS 80 mg/kg, CP 70 mg/kg BW, HN 40 mg/kg BW, with or without EDS pre-treatment.

Where a name gives a salt, the structure may show the parent alone.

As for `CCN(CC)CCCC(C)Nc1ccnc2cc(Cl)ccc12` (stereo not drawn) [chloroquine], the “additive effect of humanin in doxorubicin treated B16 cells, with autophagy inhibitor” value with B16 melanoma cells is on record as “diminished the additive effect of humanin”.
For “HN-L12A: HN with a substitution of alanine for 12th leucine, HN antagonist dimerizes with HN preventing HN binding to receptor (MAPRGFSCLLLATSEIDLPVKRRA)”, the “Cytoprotective Action” value in the data set on cells was “HN antagonist, forms inactive dimer”. Further, in the data set on male germ cells [1], the “effect of adding the analog on the preventive effect of HN against CP-induced germ cell apoptosis” value (shortened to “effect of adding the analog”) is given as “completely blocked the preventive effect of HN”; the “spontaneous germ cell apoptosis, peptide alone” value (“spontaneous germ cell apoptosis” for short) is “did not change the spontaneous germ cell apoptosis”; the “effect on CP-induced germ cell apoptosis, early+late stages” value (from here on “effect … early+late stages”) is given as “unable to rescue”. For the same compound, the “effect on CP-induced germ cell apoptosis, middle stages” value (“effect … middle stages” for short) in the data set with male germ cells [1] (stages VII-VIII) is “unable to rescue”.
Regarding `CS(=O)(=O)OCCOS(C)(=O)=O` [EDS, ethane dimethanesulfonate], the “Leydig cells in the interstitial spaces (testis histology)” value in the data set with Leydig cells (EDS for three days) is “depletion of Leydig cells”. Moreover, in the data set on Leydig cells (setting [5]), the intratesticular testosterone levels result is “decreased to very low levels” and the serum testosterone levels entry is recorded as “decreased to very low levels”. Besides, in the data set on male germ cells [2], the “germ cell apoptosis at early (I-VI) and late (IX-XIV) stages, EDS pre-treated rats, compared to control” value is recorded as “did not significantly increase germ cell apoptosis”; the “germ cell apoptosis in middle (VII-VIII) stages, EDS pre-treated rats” value is “had significant acute cytotoxic effects on germ cells”.
`COc1cccc2c1C(=O)c1c(O)c3c(c(O)c1C2=O)C[C@@](O)(C(=O)CO)C[C@@H]3O[C@H]1C[C@H](N)[C@H](O)[C@H](C)O1` [DOX, doxorubicin hydrochloride, reference compound]: the “germ cell apoptosis (number of apoptotic germ cells) compared to control” value in data set [3] is reported as “significantly higher number of apoptotic germ cells”; in data set [3] (listed as doxorubicin), “significantly increased apoptosis”. In addition, the “germ cell apoptosis compared with control” value in data set [3] (doxorubicin 1 μM (low dose)) is recorded as “increased apoptosis but did not reach statistical difference”.
Take MAPRGFACLLLLTSEIDLPVKRRA [HN-S7A]: in the data set with STAT3, the “STAT3 phosphorylation (phosphorylated STAT3/STAT3) compared with control” value is “did not change STAT3 phosphorylation” and the “CP suppressed STAT3 (Ser727) phosphorylation” value is given as “restored CP-induced Ser 727-phosphorylation of STAT3”. Besides, the “Cytoprotective Action” value with cells is “Not effective, prevents HN self-”. Moreover, in data set [4], the Characteristics result is listed as “Loss of membrane receptor”. For the same compound, in the data set on male germ cells [1], the “effect of adding the analog” value is listed as “did not change the effect of HN on CP-induced apoptosis”; the “spontaneous germ cell apoptosis” value is given as “did not change the spontaneous germ cell apoptosis”; the “effect … early+late stages” value is recorded as “inhibited”. For the same compound, the “effect … middle stages” value with male germ cells [1] (stages VII-VIII) is listed as “had better protective effect than HN”.
Consider `Cn1cnc(N)c2ncnc1-2` [3-MA], for which the “additive effect of humanin in doxorubicin treated B16 cells, with autophagy inhibitor” value in the data set on B16 melanoma cells is reported as “diminished the additive effect of humanin”.
As for “MAPRGFSALLLLTSEIDLPVKRRA [HN-C8A, HN mutant, Cys8 to Ala]”, the “Cytoprotective Action” value in the data set with cells was “Not effective, prevents HN self-”. The Characteristics result in data set [4] is recorded as “Loss of membrane receptor”.
As to MAPRGFSPLLLLTSEIDLPVKRRA [HN-C8P], in the data set with STAT3, the “STAT3 phosphorylation (phosphorylated STAT3/STAT3) compared with control” value is reported as “did not change STAT3 phosphorylation” and the “CP suppressed STAT3 (Ser727) phosphorylation” value is recorded as “restored CP-induced Ser 727-phosphorylation of STAT3”. Besides, the “Cytoprotective Action” value in the data set on cells is reported as “Not effective, blocks intracellular HN”. Besides, the Characteristics result in data set [4] was “Loss of BAX binding”. Moreover, in the data set on male germ cells [1], the “effect of adding the analog” value is “did not change the preventive effect of HN”; the “spontaneous germ cell apoptosis” value was “did not change the spontaneous germ cell apoptosis”; the “effect … early+late stages” value was “showed less protection against CP-induced apoptosis”. In addition, the “inhibition of (protection against) CP-induced germ cell apoptosis, early+late stages” value in the data set with male germ cells [1] (HNG, HNG-F6A 5 mg/kg BW) is listed as about 30%. Also, the “effect … middle stages” value with male germ cells [1] (stages VII-VIII) is reported as “no significant effect in middle (VII-VIII) stages”.
For MAPRGASCLLLLTSEIDLPVKRRA [HN-F6A], the “Cytoprotective Action” value in the data set with cells was “Similar/more effective than HN”. Besides, the Characteristics entry in data set [4] was “Loss of IGFBP-3 binding”.
MAPRGASCLLLLTGEIDLPVKRRA [HNG-F6A]: the “spontaneous germ cell apoptosis” value in the data set on male germ cells [1] is on record as “did not change spontaneous germ cell apoptosis”. In addition, in the data set with male germ cells [1] (HNG, HNG-F6A 5 mg/kg BW), the “inhibition of (protection against) CP-induced germ cell apoptosis, early+late stages” value was about 38%. Moreover, the “prevention of CP-induced germ cell apoptosis, middle stages” value in the data set with male germ cells [1] (stages VII-VIII, HNG, HNG-F6A 5 mg/kg BW) is about 42%.
